Test results taken from patent US9060520B2, “Domestic animal parasite-repellent device” (priority 2007, dated 2015).

Assay: Release kinetics at 38° C. in oven, by daily weighing (Examples 5-8, 10, 11)
Assay type: physicochemical

CCOP(=S)(OCC)Oc1cc(C)nc(C(C)C)n1 [DIAZINON]
release as of the fourth day (EVA object with DIAZINON and GIN3, for the remaining 70%): 1.30 % per day | amount released the first three days (EVA object with DIAZINON and GIN3 granules blended 40/60, FIG. 7): 28%

C=CC(C)(O)CCC=C(C)C (stereo not drawn) [LINALOL]
peak of release of LINALOL relative to the bracelet, in absolute value (EVA/PEBAX matrix 30% LINALOL vs PVC bracelet 15% LINALOL, oven 38° C., FIG. 11): 16 times
